Experimental data published in ChEMBL document CHEMBL5247592, “Discovery of novel VEGFR-2-PROTAC degraders based on the localization of lysine residues via recruiting VHL for the treatment of gastric cancer” (Eur J Med Chem, 2022).
Activity calls are given as the source filed them. The calls are words filed in the database; no cut-off is given here.

Key:
[1] = target: T1, von Hippel-Lindau disease tumor suppressor/Vascular endothelial growth factor receptor 2 (Homo sapiens, UniProt P35968+P40337); experiment: PROTAC activity at VHL/VEGFR2 in human HGC-27 cells assessed as reduction in VEGFR2 protein level at 1 uM by Western blot analysis; format: cell-based; details: time 12-36 hrs, TDE = time-dependent effect
Target sequence in this assay (P35968 20-1356 limits assumed): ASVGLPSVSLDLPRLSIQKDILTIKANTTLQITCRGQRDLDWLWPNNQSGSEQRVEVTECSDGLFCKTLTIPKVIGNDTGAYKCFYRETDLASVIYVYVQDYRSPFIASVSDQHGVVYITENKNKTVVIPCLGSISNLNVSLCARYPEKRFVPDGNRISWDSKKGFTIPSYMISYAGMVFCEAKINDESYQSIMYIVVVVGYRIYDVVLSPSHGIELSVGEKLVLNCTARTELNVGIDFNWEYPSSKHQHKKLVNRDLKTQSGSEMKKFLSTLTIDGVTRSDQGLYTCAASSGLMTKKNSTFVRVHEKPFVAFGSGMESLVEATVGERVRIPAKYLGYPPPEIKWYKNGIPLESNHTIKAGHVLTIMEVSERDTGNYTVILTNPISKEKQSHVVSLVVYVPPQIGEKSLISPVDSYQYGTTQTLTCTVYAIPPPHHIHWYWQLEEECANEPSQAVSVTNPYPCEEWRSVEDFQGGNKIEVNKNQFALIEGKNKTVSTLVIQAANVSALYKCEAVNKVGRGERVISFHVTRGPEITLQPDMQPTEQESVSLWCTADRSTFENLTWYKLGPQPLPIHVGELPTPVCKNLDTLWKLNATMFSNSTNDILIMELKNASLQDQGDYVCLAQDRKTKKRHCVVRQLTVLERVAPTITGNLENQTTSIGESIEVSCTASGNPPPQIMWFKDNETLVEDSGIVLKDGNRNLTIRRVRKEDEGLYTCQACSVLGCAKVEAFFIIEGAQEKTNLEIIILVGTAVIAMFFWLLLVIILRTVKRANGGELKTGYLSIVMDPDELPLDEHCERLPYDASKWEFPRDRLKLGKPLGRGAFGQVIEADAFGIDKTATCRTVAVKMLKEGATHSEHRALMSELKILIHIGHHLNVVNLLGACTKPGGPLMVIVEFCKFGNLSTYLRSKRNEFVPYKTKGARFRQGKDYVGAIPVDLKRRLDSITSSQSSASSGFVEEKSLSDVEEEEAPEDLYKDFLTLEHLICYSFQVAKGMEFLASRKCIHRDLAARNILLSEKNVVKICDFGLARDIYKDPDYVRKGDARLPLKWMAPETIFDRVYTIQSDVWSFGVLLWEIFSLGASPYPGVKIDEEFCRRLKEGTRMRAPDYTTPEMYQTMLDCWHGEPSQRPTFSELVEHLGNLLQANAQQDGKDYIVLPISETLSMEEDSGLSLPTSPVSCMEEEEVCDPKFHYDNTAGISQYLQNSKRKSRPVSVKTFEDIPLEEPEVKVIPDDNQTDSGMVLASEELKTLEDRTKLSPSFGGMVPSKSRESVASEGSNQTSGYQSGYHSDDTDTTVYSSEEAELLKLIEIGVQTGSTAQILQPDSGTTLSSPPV
Target sequence in this assay (P40337 whole entry partner): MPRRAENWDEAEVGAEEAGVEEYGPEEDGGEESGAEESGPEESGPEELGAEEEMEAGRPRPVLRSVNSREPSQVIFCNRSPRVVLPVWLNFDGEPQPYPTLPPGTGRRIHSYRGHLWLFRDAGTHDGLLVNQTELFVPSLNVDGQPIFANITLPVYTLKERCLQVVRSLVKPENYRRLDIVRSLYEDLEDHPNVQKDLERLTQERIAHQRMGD

HGC-27 [2] = experiment: Antiinvasive activity in human HGC-27 cells assessed as reduction in number of invasive cells at 0.1 uM incubated for 24 hrs by transwell invasion assay (reference value: 118); format: functional
[3] = target: T1, von Hippel-Lindau disease tumor suppressor/Vascular endothelial growth factor receptor 2; experiment: PROTAC activity at VHL/VEGFR2 in HUVEC cells assessed as reduction in VEGFR2 protein level at 10 uM incubated for 24 hrs by Western blot analysis; format: cell-based
Target sequence in this assay (P35968 20-1356 limits assumed): as the sequence (P35968 20-1356 limits assumed) above
Target sequence in this assay (P40337 whole entry partner): as the sequence (P40337 whole entry partner) above

HGC-27 [4] = experiment: Induction of apoptosis in human HGC-27 cells assessed as late apoptotic cells at 0.33 uM incubated for 24 hrs by Annexin V-FITC/PI staining based analysis (reference value: 3%); format: functional
[5] = target: T1, von Hippel-Lindau disease tumor suppressor/Vascular endothelial growth factor receptor 2; experiment: PROTAC activity at VHL/VEGFR2 in human HGC-27 cells assessed as induction of VEGFR2 degradation at 1 uM measured after 4 hrs by Western blot analysis relative to control; format: cell-based
Target sequence in this assay (P35968 20-1356 limits assumed): as the sequence (P35968 20-1356 limits assumed) above
Target sequence in this assay (P40337 whole entry partner): as the sequence (P40337 whole entry partner) above

[6] = Effect on VEGFR2 mRNA expression in human HGC-27 cells at 0.1 uM incubated for 24 hrs by qPCR analysis relative to control; format: functional
HGC-27 [7] = experiment: Induction of apoptosis in human HGC-27 cells assessed as viable cells at 3.3 uM incubated for 24 hrs by Annexin V-FITC/PI staining based analysis (reference value: 95.3%); format: functional; details: read-out: Activity
[8] = target: T1, von Hippel-Lindau disease tumor suppressor/Vascular endothelial growth factor receptor 2; experiment: PROTAC activity at VHL/VEGFR2 in human HGC-27 cells assessed as induction of VEGFR2 degradation at 1 uM measured after 36 hrs by Western blot analysis relative to control; format: cell-based
Target sequence in this assay (P35968 20-1356 limits assumed): as the sequence (P35968 20-1356 limits assumed) above
Target sequence in this assay (P40337 whole entry partner): as the sequence (P40337 whole entry partner) above

HGC-27 [9] = experiment: Inhibition of cell migration in human HGC-27 cells assessed as suppression of cell migration at 1 uM incubated for 24 hrs by wound healing assay relative to control; format: functional
HGC-27 [10] = experiment: Antiinvasive activity in human HGC-27 cells assessed as reduction in number of invasive cells at 3.33 uM incubated for 24 hrs by transwell invasion assay (reference value: 118); format: functional
[11] = target: T1, von Hippel-Lindau disease tumor suppressor/Vascular endothelial growth factor receptor 2; experiment: (§1) PROTAC activity at VHL/VEGFR2 in human HGC-27 cells assessed as reduction in relative VEGRF2 expression level at 1 uM preincubated with MLN4924 for 2 hrs followed by compound addition and measured after 24 hrs by Western blot analysis; format: cell-based
Target sequence in this assay (P35968 20-1356 limits assumed): as the sequence (P35968 20-1356 limits assumed) above
Target sequence in this assay (P40337 whole entry partner): as the sequence (P40337 whole entry partner) above

HGC-27 [12] = experiment: Induction of apoptosis in human HGC-27 cells assessed as necrotic cells at 0.033 uM incubated for 24 hrs by Annexin V-FITC/PI staining based analysis (reference value: 0.65 %); format: functional
HGC-27 [13] = experiment: Antiproliferative activity against human HGC-27 cells assessed as inhibition of cell growth incubated for 72 hrs by MTT assay; format: functional, cell-based; details: HGC-27, 72 h
[14] = target: T1, von Hippel-Lindau disease tumor suppressor/Vascular endothelial growth factor receptor 2; experiment: as §1, with “4-Amino-N-(6-(1-(2-((4-methyl-3-(trifluoromethyl)phenyl)amino)-2-oxoethyl)-1H-pyrazol-4-y1)-1H-indazol-3-Abenzamide” for “MLN4924”; format: cell-based
Target sequence in this assay (P35968 20-1356 limits assumed): as the sequence (P35968 20-1356 limits assumed) above
Target sequence in this assay (P40337 whole entry partner): as the sequence (P40337 whole entry partner) above

HGC-27 [15] = experiment: Induction of apoptosis in human HGC-27 cells assessed as viable cells at 0.1 uM incubated for 24 hrs by Annexin V-FITC/PI staining based analysis (reference value: 95.3%); format: functional; details: read-out: Activity
HGC-27 [16] = experiment: Induction of cell cycle arrest in human HGC-27 cells assessed as G0/G1 phase cells at 1 uM incubated for 24 hrs by PI staining based flow cytometric analysis (reference value: 47.4%); format: functional
[17] = target: T1, von Hippel-Lindau disease tumor suppressor/Vascular endothelial growth factor receptor 2; experiment: PROTAC activity at VHL/VEGFR2 in human HGC-27 cells assessed as reduction in relative VEGRF2 expression level at 1 uM preincubated with VH032 for 2 hrs followed by compound addition and measured after 24 hrs by Western blot analysis; format: cell-based
HGC-27 [18] = experiment: Induction of apoptosis in human HGC-27 cells assessed as early apoptotic cells at 0.033 uM incubated for 24 hrs by Annexin V-FITC/PI staining based analysis (reference value: 1.7 %); format: functional
HGC-27 [19] = experiment: Induction of apoptosis in human HGC-27 cells assessed as late apoptotic cells at 1 uM incubated for 24 hrs by Annexin V-FITC/PI staining based analysis (reference value: 3%); format: functional
HGC-27 [20] = experiment: Induction of apoptosis in human HGC-27 cells assessed as necrotic cells at 0.1 uM incubated for 24 hrs by Annexin V-FITC/PI staining based analysis (reference value: 0.65 %); format: functional
[21] = target: T1, von Hippel-Lindau disease tumor suppressor/Vascular endothelial growth factor receptor 2; experiment: PROTAC activity at VHL/VEGFR2 in human HGC-27 cells assessed as reduction in VEGFR2 protein expression at 1 uM measured upto 24 hrs in the presence of cycloheximide by Western blot analysis; format: cell-based
[22] = target: T1, von Hippel-Lindau disease tumor suppressor/Vascular endothelial growth factor receptor 2; experiment: PROTAC activity at VHL/VEGFR2 in human HGC-27 cells assessed as residual activity by measuring VEGFR2 expression level at 1 uM incubated for 24 hrs followed by compound washout and measured after 24 hrs by Western blot analysis relative to control; format: cell-based
HGC-27 [23] = experiment: Induction of apoptosis in human HGC-27 cells assessed as late apoptotic cells at 3.3 uM incubated for 24 hrs by Annexin V-FITC/PI staining based analysis (reference value: 3%); format: functional
HGC-27 [24] = experiment: Induction of cell cycle arrest in human HGC-27 cells assessed as S phase cells at 0.33 uM incubated for 24 hrs by PI staining based flow cytometric analysis (reference value: 26.4%); format: functional
[25] = target: T1, von Hippel-Lindau disease tumor suppressor/Vascular endothelial growth factor receptor 2; experiment: PROTAC activity at VHL/VEGFR2 in human HGC-27 cells assessed as half-life of intracellular VEGFR2 protein […] at 1 uM measured upto 24 hrs in the presence of cycloheximide by Western blot analysis (reference value: 5.45 hrs); format: cell-based
[26] = target: T1, von Hippel-Lindau disease tumor suppressor/Vascular endothelial growth factor receptor 2; experiment: PROTAC activity at VHL/VEGFR2 in human HGC-27 cells assessed as induction of VEGFR2 degradation at 1 uM measured after 8 hrs by Western blot analysis relative to control; format: cell-based
[27] = target: T1, von Hippel-Lindau disease tumor suppressor/Vascular endothelial growth factor receptor 2; experiment: PROTAC activity at VHL/VEGFR2 in human HGC-27 cells assessed as reduction in VEGFR2 protein level incubated for 24 hrs by Western blot analysis; format: cell-based
Target sequence in this assay (P35968 whole entry): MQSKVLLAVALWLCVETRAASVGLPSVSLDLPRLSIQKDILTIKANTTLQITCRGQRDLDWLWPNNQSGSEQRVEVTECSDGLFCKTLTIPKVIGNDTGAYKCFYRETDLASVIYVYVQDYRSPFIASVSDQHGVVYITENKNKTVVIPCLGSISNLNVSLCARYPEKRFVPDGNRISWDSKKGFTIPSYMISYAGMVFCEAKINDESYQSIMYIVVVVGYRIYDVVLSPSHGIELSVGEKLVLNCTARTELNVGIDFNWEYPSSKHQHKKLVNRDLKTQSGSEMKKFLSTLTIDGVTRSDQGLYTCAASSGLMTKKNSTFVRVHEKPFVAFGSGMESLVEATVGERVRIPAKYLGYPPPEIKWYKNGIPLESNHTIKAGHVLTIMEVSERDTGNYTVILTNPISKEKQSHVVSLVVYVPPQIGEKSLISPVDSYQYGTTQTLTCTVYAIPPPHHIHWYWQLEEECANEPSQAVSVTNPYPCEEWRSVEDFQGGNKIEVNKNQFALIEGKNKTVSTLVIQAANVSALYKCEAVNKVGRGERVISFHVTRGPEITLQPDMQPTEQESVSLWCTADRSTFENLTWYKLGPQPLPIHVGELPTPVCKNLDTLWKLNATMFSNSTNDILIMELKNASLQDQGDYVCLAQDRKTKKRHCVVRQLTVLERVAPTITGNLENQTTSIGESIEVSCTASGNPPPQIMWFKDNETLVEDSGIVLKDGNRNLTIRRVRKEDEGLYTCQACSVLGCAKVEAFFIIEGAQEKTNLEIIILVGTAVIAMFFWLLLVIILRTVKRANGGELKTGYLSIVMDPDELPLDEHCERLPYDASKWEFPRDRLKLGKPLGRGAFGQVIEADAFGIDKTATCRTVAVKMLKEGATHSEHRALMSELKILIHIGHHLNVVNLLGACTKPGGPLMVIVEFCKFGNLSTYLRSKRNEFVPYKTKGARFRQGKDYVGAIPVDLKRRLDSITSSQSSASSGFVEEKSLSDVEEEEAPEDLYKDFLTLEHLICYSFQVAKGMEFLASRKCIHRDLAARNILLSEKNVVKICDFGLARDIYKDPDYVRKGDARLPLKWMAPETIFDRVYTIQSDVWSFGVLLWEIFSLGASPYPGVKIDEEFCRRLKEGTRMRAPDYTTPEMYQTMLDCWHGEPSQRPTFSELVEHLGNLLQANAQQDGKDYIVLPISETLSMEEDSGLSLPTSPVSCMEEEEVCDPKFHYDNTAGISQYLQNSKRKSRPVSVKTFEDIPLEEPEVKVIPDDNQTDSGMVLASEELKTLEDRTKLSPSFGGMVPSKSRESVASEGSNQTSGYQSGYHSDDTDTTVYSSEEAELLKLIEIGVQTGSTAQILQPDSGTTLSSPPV
Target sequence in this assay (P40337 whole entry): as the sequence (P40337 whole entry partner) above

HGC-27 [28] = experiment: Induction of apoptosis in human HGC-27 cells assessed as late apoptotic cells at 0.033 uM incubated for 24 hrs by Annexin V-FITC/PI staining based analysis (reference value: 3%); format: functional
HGC-27 [29] = experiment: Induction of apoptosis in human HGC-27 cells assessed as necrotic cells at 1 uM incubated for 24 hrs by Annexin V-FITC/PI staining based analysis (reference value: 0.65 %); format: functional
[30] = target: T1, von Hippel-Lindau disease tumor suppressor/Vascular endothelial growth factor receptor 2; experiment: PROTAC activity at VHL/VEGFR2 in human HGC-27 cells assessed as residual activity by measuring VEGFR2 expression level at 1 uM incubated for 24 hrs followed by compound washout and measured after 4 hrs by Western blot analysis relative to control; format: cell-based
[31] = target: T1, von Hippel-Lindau disease tumor suppressor/Vascular endothelial growth factor receptor 2; experiment: PROTAC activity at VHL/VEGFR2 in human HGC-27 cells assessed as induction of VEGRF2 protein degradation at 1 uM preincubated with VH032 for 2 hrs followed by compound addition and measured after 24 hrs by Western blot analysis; format: cell-based

With `Cc1ccc(NC(=O)Cn2cc(-c3ccc4c(NC(=O)c5ccc(NC(=O)CCCCCCCCC(=O)N[C@H](C(=O)N6C[C@H](O)C[C@H]6C(=O)NCc6ccc(-c7scnc7C)cc6)C(C)(C)C)cc5)n[nH]c4c3)cn2)cc1C(F)(F)F` the Activity [1] was “Tde”, the Activity (HGC-27 [2]) was 100 and the Activity [3] was “inactive”. For the same compound, the Activity (HGC-27 [4]) was 6.7%, the Activity [5] was 16.9% and the Activity [6] was 90%. For the same compound, the viability at 3.3 µM (HGC-27 [7]) was 54%, the Activity [8] was 60.6% and the inhibition at 1 µM (HGC-27 [9]) was 21.2%. For the same compound, the Activity (HGC-27 [10]) was 4, the Activity [11] was “inactive” and the Activity (HGC-27 [12]) was 0.32%. For the same compound, the IC50 (HGC-27 [13]) was 2030 nM, the Activity [14] was “inactive” and the viability at 0.1 µM (HGC-27 [15]) was 92.1%. For the same compound, the Activity (HGC-27 [16]) was 12.5%, the Activity [17] was “inactive” and the Activity (HGC-27 [18]) was 2%. The Activity (HGC-27 [19]) was 14.2%, the Activity (HGC-27 [20]) was 0.46% and the Activity [21] was “Active”. The Activity [22] was 77%, the Activity (HGC-27 [23]) was 30.5% and the Activity (HGC-27 [24]) was 23.4%. The T1/2 [25] was 5.45 h, the Activity [26] was 18.2% and the EC50 [27] was 84 nM. For the same compound, the Activity (HGC-27 [28]) was 3%, the Activity (HGC-27 [29]) was 0.64% and the Activity [30] was 32.8%. For the same compound, the Activity [31] was “inactive”.
